Converted amounts (≈) assume the structure as drawn. Read-outs that look alike come from different tables or passages of the source.
Columns and labels:
P. aeruginosa PAO1 = test: Inner (cytoplasmic) membrane permeabilization assay (propidium iodide); format: cell-based; conditions: D-RR4 5 × and 10 × MIC, LL-37 10 × MIC
Description: Damage of the bacterial inner (cytoplasmic) membrane by peptides was monitored by measuring the fluorescence intensity of P. aeruginosa PAO1 combined with propidium iodide and then subsequently treated with D-RR4.
Damage of the bacterial inner (cytoplasmic) membrane after exposure to peptides was evaluated using propidium iodide, as described elsewhere[47].
Data are presented as means ± standard error of the means
indicated by propidium iodide fluorescence.
Each experiment was performed in duplicate, and the
values represent means ± standard deviation.

[1] = system: P. aeruginosa and A. baumannii isolates
Description: (§1) The broth microdilution technique was utilized to assess the MIC of designed peptides according to the guidelines of the Clinical and Laboratory Standards Institute (CLSI)[37].

[2] = system: colistin-resistant P. aeruginosa isolated from cystic fibrosis patients
Description: as §1

A. baumannii = format: cell-based
[3] = colistin-resistant isolates of Table 3

With `CC[C@H](C)[C@H](NC(=O)[C@H](CCCCN)NC(=O)[C@H](CCC(=O)O)NC(=O)[C@H](CCCCN)NC(=O)[C@H](CO)NC(=O)[C@H](CCCCN)NC(=O)[C@H](CCCNC(=N)N)NC(=O)[C@H](Cc1ccccc1)NC(=O)[C@H](Cc1ccccc1)NC(=O)[C@H](CC(=O)O)NC(=O)CNC(=O)[C@H](CC(C)C)NC(=O)[C@@H](N)CC(C)C)C(=O)NCC(=O)N[C@@H](CCCCN)C(=O)N[C@@H](CCC(=O)O)C(=O)N[C@@H](Cc1ccccc1)C(=O)N[C@@H](CCCCN)C(=O)N[C@@H](CCCNC(=N)N)C(=O)N[C@H](C(=O)N[C@H](C(=O)N[C@@H](CCC(N)=O)C(=O)N[C@@H](CCCNC(=N)N)C(=O)N[C@H](C(=O)N[C@@H](CCCCN)C(=O)N[C@@H](CC(=O)O)C(=O)N[C@@H](Cc1ccccc1)C(=O)N[C@@H](CC(C)C)C(=O)N[C@@H](CCCNC(=N)N)C(=O)N[C@@H](CC(N)=O)C(=O)N[C@@H](CC(C)C)C(=O)N[C@H](C(=O)N1CCC[C@H]1C(=O)N[C@@H](CCCNC(=N)N)C(=O)N[C@H](C(=O)N[C@@H](CCC(=O)O)C(=O)N[C@@H](CO)C(=O)O)[C@@H](C)O)C(C)C)[C@@H](C)CC)C(C)C)[C@@H](C)CC` [LL-37, reference compound] the “propidium iodide fluorescence (inner membrane damage)” value (P. aeruginosa PAO1) was “rapid and significant increase in fluorescence”, the MIC50 ([1]; MIC that inhibited growth of 50% of all isolates (Table 2)) was 4 µM (≈ 18 µg/mL) and the MIC90 ([1]; MIC that inhibited growth of 90% of all isolates (Table 2)) was 32 µM (≈ 144 µg/mL). For the same compound, the MIC50 [2, 3] was 64 µM (≈ 288 µg/mL), the MIC90 [2, 3] was >128 µM and the MIC ([2]; strain 1015) was >128 µM. The MIC ([2]; strain 1016) was >128 µM, the MIC ([2]; strain 1017) was >128 µM and the MIC ([2]; strain 1020) was 32 µM (≈ 144 µg/mL). The MIC ([2]; strain 1109) was 64 µM (≈ 288 µg/mL), the MIC ([2]; strain 1125) was 128 µM (≈ 575 µg/mL) and the MIC ([2]; strain 1131) was 16 µM (≈ 71.9 µg/mL). For the same compound, the MIC ([2]; strain 1133) was 32 µM (≈ 144 µg/mL), the MIC ([2]; strain 1571) was 16 µM (≈ 71.9 µg/mL) and the MIC ([2]; strain 1603) was 32 µM (≈ 144 µg/mL). The MIC ([2]; strain 16011) was >128 µM, the MIC (A. baumannii; strain ATCC 19606) was 2 µM (≈ 8.99 µg/mL) and the MIC (A. baumannii; strain ATCC BAA-747) was 8 µM (≈ 35.9 µg/mL). For the same compound, the MIC (A. baumannii; strain ATCC BAA-1605) was 4 µM (≈ 18 µg/mL), the MIC (A. baumannii; strain NR-9667) was 4 µM (≈ 18 µg/mL) and the MIC (A. baumannii; strain NR-13374) was 4 µM (≈ 18 µg/mL). The MIC (A. baumannii; strain NR-13375) was 4 µM (≈ 18 µg/mL), the MIC (A. baumannii; strain NR-13382) was 4 µM (≈ 18 µg/mL) and the MIC (A. baumannii; strain NR-17777) was 4 µM (≈ 18 µg/mL). The MIC (A. baumannii; strain NR-17778) was 4 µM (≈ 18 µg/mL), the MIC (A. baumannii; strain NR-17780) was 4 µM (≈ 18 µg/mL) and the MIC (A. baumannii; strain NR-17783) was 4 µM (≈ 18 µg/mL). For the same compound, the MIC (A. baumannii; strain NR-17784) was 4 µM (≈ 18 µg/mL), the MIC (A. baumannii; strain NR-17785) was 4 µM (≈ 18 µg/mL) and the MIC (A. baumannii; strain NR-17786) was 4 µM (≈ 18 µg/mL). It also gave an MIC (A. baumannii; strain NR-19298) of 2 µM (≈ 8.99 µg/mL) and an MIC (A. baumannii; strain NR-19299) of 8 µM (≈ 35.9 µg/mL).

From paper PMC5537347, “A short D-enantiomeric antimicrobial peptide with potent immunomodulatory and antibiofilm activity against multidrug-resistant Pseudomonas aeruginosa and Acinetobacter baumannii” (Scientific Reports, 2017)
